Experiments:
[1] = system: RPS19-deficient CD34+ cells; assay: Human RPS19-edited model of DBA: erythroid differentiation with EPO; type: cell-based; settings: EPO 13 days, 0.1 μM nilotinib (FIGS. 14A-14C)
Method: FIG. 14. Nilotinib promotes erythropoiesis in a human RPS19-edited model of DBA. RPS19 gene was edited in primary human CD34^+/CD133^+ cells with CRISPR-Cas9 technology and the cells were then differentiated with EPO for 13 days in the presence of absence of 0.1 μM nilotinib. (A) Representative flow cytometry dot plots of CD235-APC vs. CD71-FITC from control and RPS19-edited cells at 13 days of differentiation with EPO. (B) Cell surface expression of CD235A from control (mock) and RPS19-deficient cells treated with DMSO or nilotinib. (C) Percentage of mature erythrocytes (CD71^−/CD235A^+) vs. percentage of erythroid progenitors (CD71^+/CD235A^−) in RPS19-deficient cells treated with DMSO or 0.1 μM nilotinib. (D) CASP1 activity of control and RPS19-deficient cells treated with DMSO or 0.1 μM nilotinib. MFI, mean fluorescence intensity.

K562 cells = assay: Erythroid differentiation assay in K562 cells (hemin; hemoglobin accumulation, western blot); type: cell-based, human
Method: FIG. 1. ZAKα/P38 signaling pathway is activated in K562 after erythroid differentiation and its inhibition facilitates terminal erythroid differentiation. K562 cells were pre-treated with 0.1 μM nilotinib (Nil) (A, C, D), 1 μM anisomycin (B) and/or the indicated concentrations of the […] CX-5461 for 24 h, and then differentiated with 50 μM hemin for another 24 h. Hemoglobin accumulation (A, B, D) and NLRP1, phosphorylated P38, GATA1, ZAKα and ACTB (A-C) amounts were then evaluated by western blot. Immunoblots are representative of 3 independent experiments. #1, ACTB; #2, GATA1.
FIG. 2. The ZAKα/P38 signaling pathways is activated in K562 after erythroid differentiation. K562 cells were pre-treated with 0.1 μM nilotinib for 24 h and then differentiated with 50 μM hemin for the indicated times. The amounts of NLRP1, GATA1, phosphorylated P38, total ZAKα, phosphorylated ZAKα (Phos-tag) and ACTB were then evaluated by western blot.
FIG. 10. Imatinib and dasatinib promote erythropoiesis in human and zebrafish. (A) K562 cells were pretreated with the indicated concentrations of nilotinib, imatinib or dasatinib for 24 h and then differentiated with 50 μM hemin for 24 h. The amounts of NLRP1, GATA1, phosphorylated P38, total ZAKα and ACTB were then evaluated by western blot. (B) Zebrafish larvae were treated from 1 to 2 dpf with the indicated concentrations of nilotinib, imatinib or dasatinib. Representative images and number of neutrophils in larvae of 2 dpf treated by bath immersion with the indicated concentrations of imatinib and dasatinib. Each dot represents one individual and the mean±SEM for each group is also shown. P values were calculated by one-way ANOVA and Tukey's multiple range test. n.s., non-significant. ***P<0.001; ****P<0.0001.
FIG. 11. Ponatinib and bosutinib promote erythropoiesis in human and zebrafish. (A) K562 cells were pretreated with the indicated concentrations of nilotinib, ponatinib and bosutinib for 24 h and then differentiated with 50 μM hemin for the indicated times. The amounts of NLRP1, total ZAKα, GATA1, phosphorylated P38 and ACTB were then evaluated by western blot. (B) Number of neutrophils in larvae of 2 dpf treated by bath immersion with the indicated concentrations of ponatinib and bosutinib. Each dot represents one individual and the mean±SEM for each group is also shown. P values were calculated by one-way ANOVA and Tukey's multiple range test. n.s., non-significant, *P<0.05. **P<0.01. ***P<0.001.
K562 cells (CRL-3343; American Type Culture Collection) were maintained in RPMI culture medium supplemented with 10% fetal calf serum (FCS), 2 mM Glutamine, and 1% penicillin-streptomycin (Life Technologies). Cells were maintained and subcultured before confluence every 72 h. For differentiation, cells were treated with 50 μM hemin (#16009-13-5, Sigma-Aldrich) in the presence of 0.1% DMSO alone or with the caspase-1 inhibitor VX-765 (100 μM), the tyrosine kinase inhibitor nilotinib (0.1 μM), the RNA polymerase I inhibitor CX-5461 (200 nM, 1 μM and 10 μM) (all from MedChemExpress). Cells were collected at different time points (0, 24, 48 hours post-hemin addition), centrifuged, washed twice with PBS, and stored at −80° C. for further analysis.
Cells were lysed in 50 mM Tris-HCl (pH 7.5), 150 mM NaCl, 1% (w/v) NP-40 and fresh protease inhibitor (1/20, #P8340, Sigma-Aldrich). Protein quantification was performed with the BCA kit using BSA as standard. Cell lysates ([…]) in SDS sample buffer were subjected to electrophoresis on a polyacrylamide gel and transferred to nitrocellulose membranes. The membranes were incubated for 1 h with TTBS containing 5% (w/v) skimmed dried milk powder or 2% (w/v) BSA. The membranes were immunoblotted in the same buffer 16 h at 4° C. with the different primary antibodies diluted 1/1000. The blots were then washed with TTBS and incubated for 1 h at room temperature with secondary HRP-conjugated antibodies diluted 2,500-fold in 5% (w/v) skimmed milk in TTBS. […]

[2] = K562 cells, 0.1 μM nilotinib 24 h, then 50 μM hemin, western blot

Question: What does the source list for `Cc1cn(-c2cc(NC(=O)c3ccc(C)c(Nc4nccc(-c5cccnc5)n4)c3)cc(C(F)(F)F)c2)cn1` [nilotinib]?
Answer: defective erythropoiesis of RPS19-deficient CD34+ cells [1]: rescued defective erythropoiesis; erythroid differentiation of K562 (K562 cells; 0.1 μM nilotinib 24 h, with or without 50 μM hemin 24 h (FIG. 1A)): strongly promoted erythroid differentiation of K562, even in the absence of hemin; haemoglobin accumulation (K562 cells; K562 cells, 0.1 μM nilotinib 24 h, then 50 μM hemin 24 h): increase in haemoglobin accumulation; hemin-induced phosphorylation of ZAKα (K562 cells; K562 cells, 0.1 μM nilotinib 24 h, then 50 μM hemin, Phos-tag western blot): strongly reversed; hemin-induced degradation of GATA1 (K562 cells; [2]): strongly reversed; hemin-induced phosphorylation of P38 (K562 cells; [2]): strongly reversed; expression of GATA1 (K562 cells; K562 cells, 0.1 μM nilotinib (FIGS. 1A and 2)): increased expression of GATA1; accumulation of GATA1 in the presence of CX-5461 (K562 cells; K562 cells, 0.1 μM nilotinib plus CX-5461 24 h, then 50 μM hemin 24 h (FIG. 1C)): able to promote accumulation of GATA1; abundance of ZAK alpha, phosphorylated ZAKα and P38, and NLRP1 (K562 cells; K562 cells, basal conditions, upon hemin-induced erythroid differentiation and upon anisomycin): Alter the abundance
